Assay results taken from patent US4202891A, “15-Oxygenated sterol compounds and the use of such compounds to inhibit the biosynthesis of sterols” (priority 1977, dated 1980).

Tests used:
[1] = Body weight of mice, ketone in diet (Example 47); type: in vivo, mouse; settings: 0.2% in diet; eight days; 7-week-old mice
Experimental: […] Five mice were fed the ketone at a level of 0.2% in a diet which was essentially free of animal sterols for eight days. Five control pair-fed mice were fed the same diet to which the ketone was not added. The mean plasma cholesterol concentration in the ketone group after the eight day experiment was 35.8(±3.6, standard error of mean) mg per 100 ml of plasma while the corresponding value for the pair-fed group was 114.4 (±3.4, standard error of mean). It should be noted that very closely matched pairfeeding is difficult to perform in mice of this age due to the small amounts of food which are consumed and which must be accurately determined in such experiments.

serum cholesterol = assay: Serum cholesterol concentration in rats, sterol in Cholesterol Free Test Diet (Examples 43, 46); type: in vivo, rat (male, Sprague-Dawley)
From the text: Male rats of the Sprague-Dawley strain were purchased from Sprague-Dawley Farms (Madison, Wisconsin). The rats were maintained on a light (7:00 A.M.-5:30 P.M.)--dark (5:30 P.M.-7:00 A.M.) cycle and fed a Cholesterol Free Test Diet (United States Biochemical Corporation, Cleveland, Ohio) for a period of 13 days prior to the initiation of the experimental period. Six days prior to the initiation of the experimental period blood samples were taken for assay of serum cholesterol concentration and, based upon the results of these analyses, rats were divided into 3 groups with approximately the same mean serum cholesterol concentration. The rats were then individually housed in metabolic cages (Econo-Metabolism Units, Maryland Plastics, New York, New York) for 6 days prior to the initiation of the experimental period. The animals were maintained on the light-dark cycle throughout the experimental period.
Blood samples were taken from the tail vein between 8:15 A.M. and 9:30 A.M. and at no time was more than ~0.5 ml of blood removed. Serum was obtained by centrifugation of the blood using Sure-Sep Junior (General Diagnostics, Division of Warner Lambert Company, Morris Plains, New Jersey) for 20 min at 2000-2500 rpm in a table top centrifuge (Dynac, Clay Adams Model 0091). Serum cholesterol concentration was assayed by a modification of the Cholesterol Auto Test (Bio-Dynamics, BMC Division) as described in Bio-Dynamics/bmc Cholesterol Instruction (revised December, 1975).
5α-Cholest-8(14)-en-3β-ol-15-one (500 mg), prepared and purified as described in Example 1, was added in small portions to 500 g of the Cholesterol Free Test Diet in a 2 liter glass stoppered bottle. After each addition of the sterol to the diet, the bottle was rolled and shaken thoroughly. The resulting 0.1% diet with respect to the 5α-cholest-8(14)-en-3β-ol-15-one was stored at 4° C. Prior to use in feeding, the diet was allowed to warm to room temperature (~25° C.).
2. Ketone group--7 rats with free access to the Cholesterol Free Test Diet containing 0.1% 5α-cholest-8(14)-en-3β-ol-15-one.
Another experiment following essentially the procedure of Example 43 was performed in which the 5α-cholest-8(14)-en-3β-ol-15-one was incorporated into the Cholesterol Free Test Diet at a concentration of 0.2%.

[2] = tested on: sterol biosynthesis in primary cultures of mouse liver cells; assay: Inhibition of sterol synthesis from [1-14C]acetate in primary cultures of liver cells; type: cell-based; settings: primary cultures of liver cells, read-out: Concentrations Required for 50% Inhibition of Sterol Synthesis
Experimental: The effect of various 15-oxygenated sterols on sterol biosynthesis in L cells and in primary cultures of mouse liver cells was tested essentially under conditions described in detail previously [A. A. Kandutsch and H. W. Chen, J. Biol. Chem., Vol. 248, pp. 8408-8417 (1973) and A. A. Kandutsch and H. W. Chen, J. Biol. Chem., Vol. 249, pp. 6057-6061 (1974`)].
(§1) The primary liver cell cultures were prepared from 16-day-old (C57BL/6J fetuses and grown in chemically defined medium (serum-free) as described in the above cited publications. The L cells, a subline of NCTC clone 929 mouse fibroblasts, were grown in chemically defined medium (serum-free) as described in the publications. These L cells are transformed fibroblasts which are regarded as malignant since they will grow as tumors if injected into the mouse strain from which they were initially obtained.
(§2) The preparation of steroid-containing media, procedures for assays of the conversion of [1-^14 C]acetate into digitonin-precipitable sterols, fatty acids, and CO2 and methods for the measurement of DNA, protein, and HMG-CoA reductase were as described in the published articles. L cell cultures were preincubated with the 15-oxygenated sterols and their derivatives for 4 hours, then [1-^14 C]acetate was added at a concentration of 4 μmoles per ml (4 μCi per ml); or the L cell cultures were incubated for 5 hours with the 15-oxygenated sterols before they were harvested for determination of microsomal HMG-CoA reductase activity.
(§3) Conditions for incubating the 15-oxygenated sterols or their derivatives with liver cell cultures were similar to those described for L cell cultures except that the cultures were incubated with the test compounds for 12 hours before labeled acetate was added or before they were harvested for enzyme assay.
The test compounds were tested over a range of at least 4 concentrations and the assay was repeated until the concentration of test compound required to produce 50% inhibition was located on the steeply declining portion of an activity vs. concentration plot. To diminish any possible effects of generalized differences in cellular metabolism, the rates of sterol synthesis from [1-^14 C]acetate were calculated as the ratio of [^14 C]sterols to [^14 C]fatty acids as described in the two cited articles by Kandutsch and Chen.

[3] = tested on: sterol biosynthesis in L cells; assay: Inhibition of sterol synthesis from [1-14C]acetate in L cell cultures; type: cell-based; settings: Mus musculus; L cell cultures; read-out: Concentrations Required for 50% Inhibition of Sterol Synthesis
Method in brief: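 Mouse L cells (NCTC clone 929 subline) in serum-free defined medium, preincubated 4 h with 15-oxygenated sterols, then given [1-14C]acetate at 4 μmoles per ml (4 μCi per ml). Sterol synthesis expressed as [14C]sterols/[14C]fatty acids ratio; 50% inhibitory concentration located over at least 4 compound concentrations.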

HMG-CoA reductase [4] = assay: Reduction of the activity of HMG-CoA reductase in L cell cultures; type: cell-based, mouse; settings: read-out: Concentrations Required for 50% Reduction of the Activity of HMG-CoA Reductase
Method in brief: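 Mouse L cells (NCTC clone 929 fibroblast subline) grown in serum-free chemically defined medium were incubated 5 h with 15-oxygenated sterols, then harvested for microsomal HMG-CoA reductase activity. Value is the sterol concentration reducing reductase activity by 50%.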

HMG-CoA reductase [5] = assay: Reduction of the activity of HMG-CoA reductase in primary cultures of liver cells; type: cell-based, mouse; settings: read-out: Concentrations Required for 50% Reduction of the Activity of HMG-CoA Reductase
Experimental: as §1, §2, §3
A number of the 15-oxygenated sterols have also been tested with respect to their effects on the activity and/or levels of the enzyme HMG-CoA reductase (3-hydroxy-3-methylglutaryl coenzyme A reductase) in the L cells and in the liver cells. As noted previously, this enzyme catalyzes the reduction of 3-hydroxy-3-methylglutaryl coenzyme A to yield mevalonic acid, an essential intermediate in the biosynthesis of sterols and of a number of other essential compounds in cells.
Using the technique described by Kandutsch and Chen in the article cited in the previous example, the concentrations of various 15-oxygenated sterols required to reduce the levels of activity of HMG-CoA reductase by 50% was determined in the cells of the L cells in culture and of the primary cultures of liver cells.

[6] = 0.1% in diet, day 4, listed as Ketone
[7] = 0.1% in diet, day 8, listed as Ketone

Structure (SMILES): CC(C)CCC[C@@H](C)[C@H]1CC(=O)C2=C3CC[C@H]4C[C@@H](O)CC[C@]4(C)[C@H]3CC[C@@]21C [5α-Cholest-8(14)-en-3β-ol-15-one, 5α-cholest-8(14)-en-3β-ol-15-one]
- average decrease in body weight (standard error of mean) [1]: 5.9 g
- effect on serum cholesterol concentrations (in words) (serum cholesterol; 0.1% in diet): marked effect in lowering the serum cholesterol concentrations
- Serum cholesterol concentration (serum cholesterol; 0.1% in diet, day 0): 71.2 ± 0.9 mg per 100 ml
- Serum cholesterol concentration (serum cholesterol; 0.1% in diet, day 4): 50.1 mg per 100 ml
- Serum cholesterol concentration (serum cholesterol; [6]): 50.1 ± 2.3 mg per 100 ml
- Serum cholesterol concentration, percentage of initial levels in individual rats (serum cholesterol; [6]): 70.5 ± 3.6%
- Serum cholesterol concentration, percentage of initial levels in individual rats (serum cholesterol; 0.1% in diet, day 4, listed as ketone): 70.5%
- Serum cholesterol concentration (serum cholesterol; 0.1% in diet, day 8): 36.9 mg per 100 ml
- Serum cholesterol concentration (serum cholesterol; [7]): 36.9 ± 3.3 mg per 100 ml
- Serum cholesterol concentration, percentage of initial levels in individual rats (serum cholesterol; [7]): 51.8 ± 4.4%
- Serum cholesterol concentration, percentage of initial levels in individual rats (serum cholesterol; 0.1% in diet, day 8, listed as ketone): 51.8%
- effect on serum cholesterol concentration (in words) (serum cholesterol; 0.2% in diet): marked effect on the serum cholesterol concentration
- Serum cholesterol concentration (serum cholesterol; 0.2% in diet, day 0): 80.5 ± 2.8 mg per 100 ml
- Serum cholesterol concentration (serum cholesterol; 0.2% in diet, day 4): 73.2 mg per 100 ml
- Serum cholesterol levels, percentage of initial levels in individual rats (serum cholesterol; 0.2% in diet, day 4): 91.6 ± 4.3%
- Serum cholesterol concentration (serum cholesterol; 0.2% in diet, day 4, listed as Ketone): 73.2 ± 3.0 mg per 100 ml
- Serum cholesterol concentration (serum cholesterol; 0.2% in diet, day 7): 32.2 mg per 100 ml
- Serum cholesterol levels, percentage of initial levels in individual rats (serum cholesterol; 0.2% in diet, day 7): 40.6 ± 7.9%
- Serum cholesterol concentration (serum cholesterol; 0.2% in diet, day 7, listed as Ketone): 32.2 ± 5.9 mg per 100 ml
- Serum cholesterol concentration (serum cholesterol; 0.2% in diet, day 9): 30.3 mg per 100 ml
- Serum cholesterol levels, percentage of initial levels in individual rats (serum cholesterol; 0.2% in diet, day 9): 37.9 ± 8.8%
- Serum cholesterol concentration (serum cholesterol; 0.2% in diet, day 9, listed as Ketone): 30.3 ± 6.2 mg per 100 ml
- IC50 [2]: 4000 nM
- IC50 [3]: 100 nM
- IC50 (HMG-CoA reductase [4]): 300 nM
- IC50 (HMG-CoA reductase [5]): 4000 nM
